Measurements reported in patent publication US5428061A, “Organic nitrates and method for their preparation” (Schwarz Pharma AG, priority 1988, dated 1995).
Where two headings read alike, the source gives them in different places.

Experiments:
[1] = system: circulatory parameters of a dog that is awake; assay: Action of organic nitrates on circulatory parameters of the awake dog after intravenous or oral administration; format: in vivo; settings: awake beagle dogs
Description: Administration of new organic nitrates to detect the nitrate action on the circulatory parameters of a dog that is awake.
The purpose of the test is to determine how the new organic nitrates act on various circulatory parameters of a dog that is awake after intravenous or oral administration. All experiments were carried out on trained beagle dogs; the circulatory parameters were measured with an arterial catheter tip manometer and a balloon catheter introduced into the V. jugularis. In order to describe the action on the arterial system, the systolic, mean and diastolic blood pressure (BP) and heart rate (HR) were measured. […] The low pressure system was measured through the central venous pressure (CVP) and the pulmonary arterial pressure (PAP). The control or reference product used was isosorbid-5-mononitrate (ISM-5).

[2] = system: isolated perfused rat heart; assay: Coronary flow increase and tolerance in isolated perfused working rat heart; settings: for Activity Drop in flow / Maximum Coronary Increase: 100 μM, isolated perfused rat hearts, n = 7; for Maximum Coronary Increase: x ± SEM
Excerpt: Determining the lack of tolerance to the action of new organic nitrates on increasing coronary flow in isolated perfused heart.
The purpose of the present investigation was to study the action and the development of tolerance to new organic nitrate compounds on isolated perfused rat heart. For this purpose, a rat heart was isolated and prepared as a "working heart".
In this experimental arrangement, the heart performs defined circulatory work from which a defined oxygen consumption and coronary flow result. The action of nitrate-like compounds can be measured in this model by the drug-induced coronary flow increase.
The resistance of the coronary vessels on an isolated working rat heart was chosen as the parameter for the detection of the action of the nitrate. A rat heart with a weight of about one gram is perfused through the left auricle with a plasma-like solution which contains nutrients and is saturated with oxygen. The left ventricle pumps the solution into the aorta against a defined pressure. Corresponding to the physiological conditions, a part of this solution flows through the coronary vessels for supplying the heart itself. At a defined work of the heart, this fraction, from which the coronary resistance can be calculated, is constant. The addition of a nitrate or other coronary dilating drug causes a drop in this coronary resistance. Therefore, if a constant concentration of an organic nitrate is introduced to the heart, then, after an initial decrease of the resistance, a partial loss of activity occurs within 20 minutes. On this model, the substances also show a coronary dilating effect, but this is not followed by a loss in activity. The maximum drop of the coronary resistance is still completely present after 60 minutes. The tested compounds were compared in an equimolar dosage with 10^-4 M nitroglycerin trinitrate. Continuous infusion of nitroglycerin causes a rapid coronary flow increase by 7.6±1.88 ml/min gww (x±SD). […] Upon further perfusion, the action of nitroglycerin is unchanged. In this experimental model, the new nitrates also show a coronary flow increase, but this is followed by only a very slight drop in the activity.

isolated guanyl cyclase = target: T1, isolated guanyl cyclase (Homo sapiens, UniProt Q02153); assay: Activation of isolated guanyl cyclase (cGMP formation); format: biochemical; settings: isolated enzyme; for EC50: read-out: concentration necessary for one-half of the maximum activity (ED50) of guanyl cyclase
T1 sequence (Q02153 1-619): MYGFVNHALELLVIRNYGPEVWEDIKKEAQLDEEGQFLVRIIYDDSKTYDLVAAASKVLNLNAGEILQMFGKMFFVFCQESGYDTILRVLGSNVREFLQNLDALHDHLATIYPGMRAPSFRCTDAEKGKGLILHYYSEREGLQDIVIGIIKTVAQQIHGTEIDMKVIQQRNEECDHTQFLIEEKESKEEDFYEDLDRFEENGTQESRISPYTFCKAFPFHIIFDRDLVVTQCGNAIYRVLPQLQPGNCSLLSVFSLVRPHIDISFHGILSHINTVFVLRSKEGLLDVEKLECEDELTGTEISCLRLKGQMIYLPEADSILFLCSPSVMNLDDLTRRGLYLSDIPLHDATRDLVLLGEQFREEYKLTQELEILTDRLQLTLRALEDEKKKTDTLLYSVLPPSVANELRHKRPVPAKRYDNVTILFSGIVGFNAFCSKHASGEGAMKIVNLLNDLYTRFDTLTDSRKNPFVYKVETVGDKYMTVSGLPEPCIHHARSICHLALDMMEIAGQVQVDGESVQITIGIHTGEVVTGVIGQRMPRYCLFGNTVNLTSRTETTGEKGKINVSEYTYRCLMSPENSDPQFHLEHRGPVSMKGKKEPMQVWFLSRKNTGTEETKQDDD
T1 sequence (Q02108 1-690 partner): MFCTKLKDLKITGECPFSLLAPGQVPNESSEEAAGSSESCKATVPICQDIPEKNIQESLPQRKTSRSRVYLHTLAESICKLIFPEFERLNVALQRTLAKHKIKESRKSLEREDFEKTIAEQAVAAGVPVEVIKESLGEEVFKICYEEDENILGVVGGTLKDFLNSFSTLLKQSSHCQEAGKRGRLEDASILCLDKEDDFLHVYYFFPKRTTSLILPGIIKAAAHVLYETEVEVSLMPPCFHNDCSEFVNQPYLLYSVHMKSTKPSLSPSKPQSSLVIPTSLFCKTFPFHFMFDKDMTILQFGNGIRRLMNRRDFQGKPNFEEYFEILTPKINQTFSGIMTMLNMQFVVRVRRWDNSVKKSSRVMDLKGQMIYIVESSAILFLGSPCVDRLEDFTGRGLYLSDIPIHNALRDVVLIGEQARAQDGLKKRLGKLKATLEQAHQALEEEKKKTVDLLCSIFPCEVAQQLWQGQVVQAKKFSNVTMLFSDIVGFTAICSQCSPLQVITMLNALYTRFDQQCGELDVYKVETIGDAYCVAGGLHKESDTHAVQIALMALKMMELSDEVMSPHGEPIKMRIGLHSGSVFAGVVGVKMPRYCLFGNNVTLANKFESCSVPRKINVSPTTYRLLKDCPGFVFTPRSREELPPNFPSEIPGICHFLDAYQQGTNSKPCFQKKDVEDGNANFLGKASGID
Excerpt: The concentration necessary for one-half of the maximum activity (ED50) of guanyl cyclase is around 200 μmole/liter. The corresponding value for GTN (in the presence of 5 mmoles/liter of cysteine) is approximately 80 μmoles/liter.

guinea pig heart = assay: Coronary flow in working heart model (guinea pig heart); settings: for EC25: Cavia porcellus, read-out: concentration for a coronary flow increase of 25%
Description: Finally, the action of N-(3-nitratopivaloyl)-cysteine ethyl ester (Nitrato-Piv-Cy-Et) was characterized on guinea pig heart. […] A flow increase of 25% is achieved even with 380 μg of nitrato-Piv-Cy-Et per liter of perfusion medium, corresponding to 1.3 μmole per liter. The corresponding concentration for glycerol trinitrate (GTN) with 5 mg/liter is at least a factor of 12 times higher. Thus, in the case of Nitrato-Piv-Cy-Et we are dealing with an especially active compound with regard to the vessels.

[3] = oral and intravenous administration
[4] = continuous infusion, 10^-4 M, isolated working rat heart
[5] = working heart model, guinea pig

## O=[N+]([O-])O[C@@H]1CO[C@H]2[C@@H]1OC[C@@H]2O [ISM-5, isosorbid-5-mononitrate]
[1]; [3]
  extensibility of the air chamber: increased significantly
  low pressure system pressure: decreased
  mean pressure: hardly effected
  systolic blood pressure: slight decrease

## CCOC(=O)[C@H](CS)NC(=O)C(C)(C)CO[N+](=O)[O-] [N-(3-nitratopivaloyl)-cysteine ethyl ester]
[1]
  bioavailability (comparison between intravenous and oral administration): good bioavailability
  course of action on circulatory parameters: typical of a nitrate
[2]
  Activity Drop in flow: 5.2%
  Maximum Coronary Increase: 6.6 ± 0.88 ml/min gww
Isolated guanyl cyclase
  activation of guanyl cyclase (formation of cGMP per unit time): concentration-dependent activation of the enzyme
  EC50: ~200 µM
Isolated guanyl cyclase; in vitro, absence of cysteine
  activation of guanyl cyclase without cysteine: activation occurs in vitro even in the absence of cysteine
Guinea pig heart; working heart model, guinea pig, converted from μg per liter
  EC25: 1.3 µM
Guinea pig heart; working heart model, guinea pig, per liter of perfusion medium
  EC25: 0.38 µg/mL
Guinea pig heart; one hour drenching perfusion, any dose, guinea pig heart
  weakening of the coronary dilating effect (tolerance development): No weakening of the coronary dilating effect
Guinea pig heart; working heart model, guinea pig, very low dose range
  effect on coronary flow: concentration-dependent increase of the coronary flow

## CCOC(=O)[C@H](CCSC)NC(=O)C(C)(C)CO[N+](=O)[O-] [N-(3-nitratopivaloyl)-methionine ethyl ester]
[1]
  bioavailability (comparison between intravenous and oral administration): good bioavailability
[2]
  Activity Drop in flow: 7.0%
  Maximum Coronary Increase: 8.3 ± 0.92 ml/min gww

## O=[N+]([O-])OCC(CO[N+](=O)[O-])O[N+](=O)[O-] [nitroglycerine, glycerol trinitrate, reference compound]
[2]
  Activity Drop in flow: 56.0%
  Maximum Coronary Increase: 7.6 ± 0.71 ml/min gww
[2]; [4]
  coronary flow increase (x±SD): 7.6±1.88 ml/min gww
  decrease of flow within 20 minutes: 55.9%
Isolated guanyl cyclase; in the presence of 5 mmoles/liter of cysteine
  EC50: ~80 µM
Guinea pig heart; [5]
  EC25: 5 µg/mL
  factor by which the concentration for 25% flow increase is higher than for Nitrato-Piv-Cy-Et: ≥ 12 times
